This note sets out measurements from patent US9422238B2, “ICMT inhibitors” (National University of Singapore, priority 2012, dated 2016).

“And” between values parts separate entries of the source, which are not always exact repeats. Identical values can stand only once. Like-named read-outs stand apart in the source and are kept apart here.

The nature of data set [1]: Parallel Artificial Membrane Permeability Assay (PAMPA). Particulars: for Papp at 16 h: PAMPA, pH 7.4. As to the method: Briefly, determinations were carried out on MultiScreen-IP PAMPA assay (donor) plates (MAIPNTR10) and MultiScreen Receiver Plates (MATRNPS50) from Millipore Corporation (USA) with 1% lecithin (L-α-phosphatidylcholine from lyophilized powder of egg yolk, Sigma Aldrich, USA) in dodecane (ReagentPlus®, Sigma Aldrich, USA) as lipid barrier. 5 μL of 1% lecithin in dodecane was dispensed into the wells of the donor plates. […] The mobile phase was Milli-Q water (0.1% formic acid) and acetonitrile (0.1% formic acid), run on gradient.
Pe was obtained from Equation 1:
[formula] Where VA and VD are the volumes of acceptor (cm^3) and donor (cm^3) wells respectively, A is the area of the surface area of the membrane (0.24 cm^2), t is the permeation time (s); S is the fraction of sample remaining in the donor and acceptor wells after permeation time and is determined from Equation 2, CA and CD are the concentrations (μM) of test/reference compound in acceptor and donor wells respectively.
The Pe of each compound was obtained from at least 3 separate experiments using no less than 2 different stock solutions. For each independent determination, triplicates (3 wells) were run for each compound.
(PAMPA measures passive passage across an artificial lipid membrane.)

The subject of data set [2] is Human lung fibroblast IMR90 cells. In words: Cell viability on non-malignant cells (MTS, 72 h). The class given is cell-based. As to the method: Cell viability was determined from the expression:
The plot was constrained to ≧0 and ≦100%.
Human lung fibroblast IMR90 cells were purchased from ATCC (Rockville, Md.) and grown in Eagle's Minimal Essential Media (EMEM, Sigma Aldrich, Singapore) at 37° C., 5% CO2. […] Seeding density was maintained at 4000 cells per well.

The test system of data set [3] is PC3 cells. The data set is described as follows: Cell cycle analysis by flow cytometry. The conditions noted are these: PC3, 48 h. Format: cell-based, human. As to the method:
PC3 cells were seeded at 100 000 cells/mL per well in 6-well plates with media DMEM (high glucose, 10% FBS, 50 μg/mL penicillin, 50 μg/mL streptomycin) and incubated (24 h, 37° C., 5% CO2) to allow cell attachment after which they were treated with test compound (in DMEM, high glucose, 5% FBS, 50 μg/mL penicillin, 50 μg/mL streptomycin) for 48 h. Final volume of DMSO per well was 0.05% v/v. Control wells (without test compound) were similarly treated. After the specified time, supernatant in the well was collected; the cell pellet was trypsinized, combined with the supernatant and pelleted by centrifugation (150 g, 5 min). After rinsing the pellet twice with ice-cold 1×PBS, the cells were suspended in 0.3 mL PBS, to which was added dropwise and with gentle shaking, cold ethanol (0.7 mL) to give a final concentration of 70% ethanol. The cell sample was then kept at 4° C. overnight after which it was centrifuged (150 g, 5 min), the supernatant was removed, the pellet rinsed with cold PBS and re-suspended in a solution of 100 μg/mL propidium iodide (PI, Sigma Aldrich, Singapore) and 0.1 mg/mL ribonuclease A (Sigma Aldrich, Singapore) in PBS (500 μL). The suspension was kept in the dark for 1 h, 25° C. (room temperature) before being analyzed for distribution in the G1,S, G2/M phases on a FCS500 flow cytometer (Beckman Coulter, CA) using the FlowJo® software (http: http://www.flowjo.com/) Each test compound was evaluated at 4 concentrations with 2 repeats per concentration.
On the technique in general: A flow cytometer gives signals particle by particle.

Data set [4] deals with PC3 cells. In words: Colony formation (clonogenic) assay. Format: cell-based, human. Particulars: PC3, 2 weeks; 8-12 1-3 μM, cysmethynil 15-25 μM. As to the method:
A flask ([…]) of PC3 cells in media (DMEM high glucose, 10% fetal bovine serum, 50 μg/mL penicillin, 50 μg/mL streptomycin) was grown to 80-90% confluency. The media was removed by pipetting and the cell layer washed with 1×PBS (5 mL). An aliquot of trypsin (1 mL, 0.25% trypsin-EDTA (1×)-phenol red, Invitrogen) was added to the plate, tapped gently for even distribution and incubated at 37° C., 5% CO2 for 1 min. The plate was quickly viewed under the microscope to confirm that cells have rounded up. Media (10 mL) was then added and the cell suspension transferred to a falcon tube (15 mL). An aliquot (10 μl) was transferred to a hemocytometer for cell counting. The suspension was then diluted to give the desired seeding concentration of 1000 cells per well in a 6-well plate. After seeding, the plate was gently tapped to help cells spread out within the wells. Plates were then incubated for 2 h (37° C., 5% CO2) for cell attachment to take place. The media was removed with a pipette, the cell layer in the well washed with PBS and replaced by a solution of the test compound in 2 mL of DMEM (containing 5% FBS, instead of 10% FBS). Test compounds were prepared in DMSO stock solutions. The final concentration of DMSO in the well was 0.05% v/v. Control plates were also prepared in which no test compound was added but with DMSO maintained at 0.05%. […]

Data set [5] has as its system human pancreatic cancer MIA PACA II cells. The data set is described as follows: Cell viability (MTS). Particulars: MIA PaCa-2, Table 6, N = 2. The class given is cell-based. The protocol: Human hepatocellular carcinoma HepG2 and human pancreatic cancer MIA PACA II cells were obtained from ATCC (Rockville, Md.). They were grown in DMEM (high glucose, Invitrogen) supplemented with 10% FBS, 50 μg/mL penicillin and 50 μg/mL streptomycin, 37° C., 5% CO2 until they reached 80-90% confluency, after which they were subcultured. Passage numbers were kept within 7-14 passages for both cell types.

Setting [6] is: IMR-90, further testing, 72 h, mean (SD), read-out: IC50 IMR90.

For `CCCCCCCCn1c2c(c3cc(-c4cnc(N)nc4)ccc31)CN(C)CC2` [Compound 305, 8-(2′-amino-pyrimidin-5′-yl)-2-methyl-5-n-octyl-1,2,3,4-tetrahydropyrido[4,3-b]indole], the Papp (as a rule, a coefficient for how fast a substance crosses the barrier) at 16 h in data set [1] was 19.7 ± 0.56 ×10⁻⁶ cm/s. Moreover, the 50% inhibitory concentration (IC50) (commonly the concentration that gives 50% inhibition) in data set [2] (setting [6]) came out at 5.29 µM.
Molecule `CCCCCCCCn1cc(CN(CC)CC)c2cc(-c3cnc(N)nc3)ccc21` [Compound 8-12, 5-(3-Diethylaminomethyl-1-octyl-1H-indol-5-yl)-pyrimidin-2-ylamine] returned an apparent permeability (Papp) at 16 h in data set [1] of 14.2 ×10⁻⁶ cm/s. Also, the “PAMPA Pe (×10^−6 cm/s)” value in data set [1] (pH 7.4, 16 h agitation, 1% lecithin in dodecane) was 14.2 ×10^−6 cm/s and 14.2 (±1.4) ×10^−6 cm/s. The “effect on cell cycle distribution” value in the data set on PC3 cells [3] was “increased cells in the G1 phase while decreasing cells in G2 phase”. In addition, the “% Cells in G1 phase” value in the data set on PC3 cells [3] (0.8 μM) is 52.92 (2) %; with PC3 cells [3] (1.0 μM) it was 59.98 (2)^3%; with PC3 cells [3] (2.0 μM), 66.45 (2)^3%. Besides, the “% Cells in G2 phase” value with PC3 cells [3] (0.8 μM) is reported as 24.22 (2) %; in the data set on PC3 cells [3] (1.0 μM), 26.99 (2.77, 3) %; with PC3 cells [3] (2.0 μM), 11.20 (2)^3%. Besides, the IC50 in data set [2] (IMR-90, Table 6, mean (SD), read-out: IC50 (μM) IMR90) worked out at 2.65 µM; in data set [2] (setting [6]), 2.65 µM; in data set [5], 1.6 µM. Further, the colony formation entry in the data set with PC3 cells [4] is “colony formation was evident only at the lowest concentration of 1 μM and not at higher concentrations (1.5 to 3 μM)”.
Take `CCCCCCCCn1cc(CC(N)=O)c2cc(-c3cccc(C)c3)ccc21` [Cysmethynil, 2-[5-(3-methylphenyl)-1-octyl-1H-indolo-3-yl]acetamide, reference compound]: in the data set on PC3 cells [3], the “effect on cell cycle distribution” value is reported as “the changes in G1/G2 cell populations were not statistically significant”. For the same molecule, the “% Cells in G1 phase” value is given as 53.0 (2) % with PC3 cells [3] (12.5 μM), 51.83 (2) % with PC3 cells [3] (17.5 μM) and 54.85 ( 2) % in the data set with PC3 cells [3] (20.0 μM). Also, the “% Cells in G2 phase” value is 27.87 (2) % in the data set with PC3 cells [3] (12.5 μM); 26.85 (12.28, 3) % in the data set on PC3 cells [3] (17.5 μM); 32.07 (2) % with PC3 cells [3] (20.0 μM). Further, in the data set with PC3 cells [4], the colony formation result is recorded as “Colony formation was observed with 15 μM cysmethynil but not at higher concentrations (17.5 to 25 μM)”. This molecule also yielded an IC50 in data set [5] of 22.5 µM.
